Our source for the T/C values is PubChem BioAssay AID330 (DTP/NCI, 2004).

Where “and” joins values, the source holds several entries; their conditions need not be identical. Equal values may be shown once. Toxic doses and inconclusive results are not listed.

The subject of the assay is P388 leukemia ip, CD2F1 mice, survival T/C. The assay can be described thus: NCI In Vivo Anticancer Drug Screen. Data for tumor model P388 Leukemia (intraperitoneal) in CD2F1 (CDF1) mice. Particulars: endpoint: median survival time, higher = longer survival. In outline:
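Mice carrying the transplanted tumor received test compound or vehicle. Survival was recorded in each group, and the value is the treated-group measurement divided by that of the vehicle-treated control group.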

Setting [1] is: dose: 12.5 mg/kg/injection, schedule: Q01DX005 (ip), vehicle: Klucel (hydroxypropylcellulose) (HPC).
Setting [2] is: dose: 25.0 mg/kg/injection, schedule: Q01DX005 (ip), vehicle: Klucel (hydroxypropylcellulose) (HPC).
Where [3] appears, read: dose: 50.0 mg/kg/injection, schedule: Q01DX009 (ip), vehicle: saline with Tween-80.
Setting [4] is: dose: 200.0 mg/kg/injection, schedule: Q01DX009 (ip), vehicle: saline with Tween-80.
[5] abbreviates: dose: 50.0 mg/kg/injection, schedule: Q01DX005 (ip), vehicle: saline with Tween-80.
[6] abbreviates: dose: 100.0 mg/kg/injection, schedule: Q01DX005 (ip), vehicle: saline with Tween-80.
Setting [7] is: dose: 200.0 mg/kg/injection, schedule: Q01DX005 (ip), vehicle: saline with Tween-80.
The mark [8] stands for this setting: dose: 100.0 mg/kg/injection, schedule: Q04DX003 (ip), vehicle: saline.
The mark [9] stands for this setting: dose: 400.0 mg/kg/injection, schedule: Q04DX003 (ip), vehicle: saline.

Regarding `CC(C)[C@]12O[C@H]1[C@@H]1O[C@]13[C@]1(O[C@H]1C[C@H]1C4=C(C(=O)OC4)[C@@H](O)C[C@@]13C)[C@@H]2O`, the T/C (dose: 0.03 mg/kg/injection, schedule: Q01DX009 (ip), vehicle: saline + alcohol) was 100 % of control and 101 % of control and 119 % of control; the T/C (dose: 0.05 mg/kg/injection, schedule: Q01DX009 (ip), vehicle: saline + alcohol) was 117 % of control; the T/C (dose: 0.06 mg/kg/injection, schedule: Q01DX005 (ip), vehicle: saline + alcohol) was 110 % of control; the T/C (dose: 0.06 mg/kg/injection, schedule: Q01DX005 (iv), vehicle: saline + alcohol) is 107 % of control; the T/C (dose: 0.06 mg/kg/injection, schedule: Q01DX009 (ip), vehicle: saline + alcohol) is 117 % of control; the T/C (dose: 0.1 mg/kg/injection, schedule: Q01DX009 (ip), vehicle: saline + alcohol) was 124 % of control. Besides, the T/C reads like this: (dose: 0.13 mg/kg/injection, schedule: Q01DX005 (ip), vehicle: saline + alcohol) 122 % of control; (dose: 0.13 mg/kg/injection, schedule: Q01DX005 (iv), vehicle: saline + alcohol) 108 % of control; (dose: 0.25 mg/kg/injection, schedule: Q01DX005 (iv), vehicle: saline + alcohol) 108 % of control; (dose: 0.25 mg/kg/injection, schedule: Q01DX009 (ip), vehicle: saline + alcohol) 157 % of control and 158 % of control; (dose: 0.5 mg/kg/injection, schedule: Q01DX005 (iv), vehicle: saline + alcohol) 116 % of control.

Take `CC(=O)C1CCC2=C(C1)C(=O)c1cc3c(-c4ccccc4)oc(-c4ccccc4)c3cc1C2=O` (stereo not given): the T/C was 87 % of control (dose: 7.5 mg/kg/injection, schedule: Q01DX005 (ip), vehicle: Klucel (hydroxypropylcellulose) (HPC)) and 94 % of control (dose: 15.0 mg/kg/injection, schedule: Q01DX005 (ip), vehicle: Klucel (hydroxypropylcellulose) (HPC)).

As to `CCOc1ccc(C(C)c2cc3c(cc2OCCO)OCO3)cc1` (stereo not given), the T/C reads like this: under setting [1], 109 % of control; under setting [2], 97 % of control; (dose: 50.0 mg/kg/injection, schedule: Q01DX005 (ip), vehicle: Klucel (hydroxypropylcellulose) (HPC)) 104 % of control; (dose: 100.0 mg/kg/injection, schedule: Q01DX005 (ip), vehicle: Klucel (hydroxypropylcellulose) (HPC)) 103 % of control; (dose: 200.0 mg/kg/injection, schedule: Q01DX005 (ip), vehicle: Klucel (hydroxypropylcellulose) (HPC)) 102 % of control.

Take `CCNC(=O)OCc1ccco1`: the T/C by setting is: (dose: 12.5 mg/kg/injection, schedule: Q01DX009 (ip), vehicle: saline) 92 % of control; (dose: 25.0 mg/kg/injection, schedule: Q01DX009 (ip), vehicle: saline) 92 % of control; under setting [3], 107 % of control.

As to `COC(=O)/C(=C\c1ccncc1)c1cccc2ccccc12`, the T/C runs as follows: (dose: 25.0 mg/kg/injection, schedule: Q01DX009 (ip), vehicle: saline with Tween-80) 101 % of control; under setting [3], 98 % of control; (dose: 100.0 mg/kg/injection, schedule: Q01DX009 (ip), vehicle: saline with Tween-80) 104 % of control; under setting [4], 99 % of control.

Regarding `O=C(O)/C(Cl)=C(\Cl)C(=O)Nc1ccccc1C(F)(F)F`, the T/C runs as follows: under setting [5], 97 % of control; under setting [6], 103 % of control.

Take `O=C(Nc1ccc(S(=O)(=O)Nc2nccs2)cc1)c1ccncc1`: the T/C reads like this: under setting [5], 102 % of control; under setting [6], 102 % of control; under setting [7], 102 % of control.

In the case of `OCC1OC(OC2C3CSC(O3)C(O)C2O)C(O)C(O)C1O` (stereo not given), the T/C runs as follows: (dose: 50.0 mg/kg/injection, schedule: Q01DX009 (ip), vehicle: saline) 105 % of control; (dose: 100.0 mg/kg/injection, schedule: Q01DX009 (ip), vehicle: saline) 106 % of control; (dose: 200.0 mg/kg/injection, schedule: Q01DX009 (ip), vehicle: saline) 106 % of control.

Turning to `Cc1nc(C)n2ncnc2c1C`, the T/C was 93 % of control under setting [8]; 102 % of control (dose: 200.0 mg/kg/injection, schedule: Q04DX003 (ip), vehicle: saline); 95 % of control under setting [9].

On to `CC(C)CCN=C(N)N=C(N)N`, for which the T/C (dose: 60.0 mg/kg/injection, schedule: Q01DX005 (ip), vehicle: saline) was 100 % of control and the T/C (dose: 120.0 mg/kg/injection, schedule: Q01DX005 (ip), vehicle: saline) was 109 % of control.

In the case of `C[C@]12C=CC(=O)C[C@@H]1CC[C@@H]1[C@@H]2C(=O)C[C@]2(C)C(=O)CC[C@@H]12`, the T/C reads like this: (dose: 100.0 mg/kg/injection, schedule: Q04DX003 (ip), vehicle: saline with Tween-80) 108 % of control; (dose: 200.0 mg/kg/injection, schedule: Q04DX003 (ip), vehicle: saline with Tween-80) 91 % of control; (dose: 400.0 mg/kg/injection, schedule: Q04DX003 (ip), vehicle: saline with Tween-80) 108 % of control.

As for `COC1CCC2C(C1)C(C1CCCCC1)C1CCCCC1C2C1CCCCC1` (stereo not given), the T/C runs as follows: under setting [5], 96 % of control; under setting [6], 93 % of control; under setting [7], 95 % of control.

Take `Cc1ccc(Cl)c(S(=O)(=O)F)c1`: the T/C was 104 % of control under setting [4] and 100 % of control (dose: 400.0 mg/kg/injection, schedule: Q01DX009 (ip), vehicle: saline with Tween-80).

Regarding `CC(=O)N1CCCC2=C1CCCC2`, the T/C is 100 % of control (dose: 25.0 mg/kg/injection, schedule: Q04DX003 (ip), vehicle: saline); 103 % of control (dose: 50.0 mg/kg/injection, schedule: Q04DX003 (ip), vehicle: saline); 104 % of control and 92 % of control under setting [8]; 101 % of control under setting [9].

As for `O=[N+]([O-])C1C2C=CC(C2)C1C(Cl)(Cl)Cl` (stereo not given), the T/C was 101 % of control (dose: 0.19 mg/kg/injection, schedule: Q01DX009 (ip), vehicle: saline with Tween-80); 100 % of control (dose: 0.39 mg/kg/injection, schedule: Q01DX009 (ip), vehicle: saline with Tween-80); 98 % of control and 99 % of control (dose: 0.78 mg/kg/injection, schedule: Q01DX009 (ip), vehicle: saline with Tween-80).

With `Cc1c2c(C#N)nccc2c(C)c2c1c1ccccc1n2Cc1ccccc1`, the T/C is 96 % of control (dose: 6.25 mg/kg/injection, schedule: Q04DX003 (ip), vehicle: distilled water + Tween-80); 90 % of control (dose: 12.5 mg/kg/injection, schedule: Q04DX003 (ip), vehicle: distilled water + Tween-80); 87 % of control (dose: 25.0 mg/kg/injection, schedule: Q04DX003 (ip), vehicle: distilled water + Tween-80); 87 % of control (dose: 50.0 mg/kg/injection, schedule: Q04DX003 (ip), vehicle: distilled water + Tween-80); 90 % of control (dose: 100.0 mg/kg/injection, schedule: Q04DX003 (ip), vehicle: distilled water + Tween-80); 91 % of control (dose: 200.0 mg/kg/injection, schedule: Q04DX003 (ip), vehicle: distilled water + Tween-80).

For `CCCCCCCCCc1cccc(N2C(N)=NC(N)=NC2(C)C)c1`, the T/C (dose: 7.5 mg/kg/injection, schedule: Q01DX005 (ip), vehicle: saline with Tween-80) is 106 % of control.

For the compound `CSC1=NSC(c2ccccc2)=C(c2ccccc2)S1`, the T/C is 111 % of control (dose: 60.0 mg/kg/injection, schedule: Q01DX005 (ip), vehicle: saline with Tween-80); 122 % of control (dose: 120.0 mg/kg/injection, schedule: Q01DX005 (ip), vehicle: saline with Tween-80); 119 % of control (dose: 240.0 mg/kg/injection, schedule: Q01DX005 (ip), vehicle: saline with Tween-80).

`CN(C)c1ncnc2nc(Cl)[nH]c12`: the T/C runs as follows: (dose: 6.25 mg/kg/injection, schedule: Q01DX005 (ip), vehicle: Klucel (hydroxypropylcellulose) (HPC)) 95 % of control; under setting [1], 112 % of control; under setting [2], 108 % of control.

`COc1ccc(-c2nc(C)cc3cc(OC)c(OC)cc23)cc1OC`: the T/C (dose: 12.5 mg/kg/injection, schedule: Q01DX009 (ip), vehicle: water) is 98 % of control; the T/C (dose: 25.0 mg/kg/injection, schedule: Q01DX009 (ip), vehicle: water) was 100 % of control; the T/C (dose: 50.0 mg/kg/injection, schedule: Q01DX009 (ip), vehicle: water) is 100 % of control; the T/C (dose: 100.0 mg/kg/injection, schedule: Q01DX009 (ip), vehicle: water) is 100 % of control.
